Molecules are shown by their SMILES.

Ki data for 20 compounds are collected here from patent US7125990B2, “Imidazolyl derivatives as corticotropin releasing factor inhibitors” (Bristol-Myers Squibb COmpany, priority 2001, dated 2006).

The target of this assay is T1, CRF1 receptors (Homo sapiens, UniProt P34998).
T1 construct: endogenous in cells; host or cells: IMR-32 cells, transformed with 2.5 µM 5'-bromo-2'-deoxyuridine for 10 days; membrane preparation
T1 sequence (P34998 24-415): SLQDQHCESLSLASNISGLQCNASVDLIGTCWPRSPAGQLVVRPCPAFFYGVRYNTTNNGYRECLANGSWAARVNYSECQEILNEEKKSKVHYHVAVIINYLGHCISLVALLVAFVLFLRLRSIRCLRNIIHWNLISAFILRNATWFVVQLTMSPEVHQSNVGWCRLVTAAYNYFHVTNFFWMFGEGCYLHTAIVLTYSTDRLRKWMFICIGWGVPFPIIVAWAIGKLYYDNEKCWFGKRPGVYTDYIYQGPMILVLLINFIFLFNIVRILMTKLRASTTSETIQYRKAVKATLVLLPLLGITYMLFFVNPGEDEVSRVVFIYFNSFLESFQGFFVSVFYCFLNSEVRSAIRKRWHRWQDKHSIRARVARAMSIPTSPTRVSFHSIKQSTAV
The experiment in a line: CRF1 receptor radioligand binding assay ([125I]-oCRF competition, IMR-32 cell membranes). To be noted: IMR-32 cell membranes, [125I]-oCRF 100 pM; read-out: Ki (CRF-1R). A digest of the protocol:
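Buffer: Tris pH 7.2 with MgCl2, BSA, Triton X-100, aprotinin, leupeptin; reaction stopped with ice-cold wash and filtered. Nonspecific binding set with 10 μM oCRF.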
In the case of `CCCCN(Cc1ccccc1)Cc1c(C(F)(F)F)nc2n1CCCN2c1c(C)cc(C)cc1Cl` [Example 105, Benzyl-butyl-[8-(2-chloro-4,6-dimethyl-phenyl)-2-trifluoromethyl-5,6,7,8-tetrahydro-imidazo[1,2-a]pyrimidin-3-ylmethyl]-amine], the Ki was below 1000 nM.
`C=C(C)CN(CC)Cc1c(C(F)(F)F)nc2n1CCCN2c1c(C)cc(C)cc1Cl` [Example 106, [8-(2-Chloro-4,6-dimethyl-phenyl)-2-trifluoromethyl-5,6,7,8-tetrahydro-imidazo[1,2-a]pyrimidin-3-ylmethyl]-ethyl-(2-methyl-allyl)-amine]: the Ki was below 1000 nM.
The result for `Cc1cc(C)c(N2CCCn3c2nc(C(F)(F)F)c3CN(C)Cc2ccccc2)c(Cl)c1` [Example 107, Benzyl-[8-(2-chloro-4,6-dimethyl-phenyl)-2-trifluoromethyl-5,6,7,8-tetrahydro-imidazo[1,2-a]pyrimidin-3-ylmethyl]-methyl-amine] reads below 1000 nM; that for `CCCCN(CC)Cc1c(C(F)(F)F)nc2n1CCCN2c1c(C)cc(C)cc1Cl` [Example 108, Butyl-[8-(2-chloro-4,6-dimethyl-phenyl)-2-trifluoromethyl-5,6,7,8-tetrahydro-imidazo[1,2-a]pyrimidin-3-ylmethyl]-ethyl-amine], below 1000 nM; that for `CCCN(CCC)Cc1c(C(F)(F)F)nc2n1CCCN2c1c(C)cc(C)cc1Cl` [Example 109, [8-(2-Chloro-4,6-dimethyl-phenyl)-2-trifluoromethyl-5,6,7,8-tetrahydro-imidazo[1,2-a]pyrimidin-3-ylmethyl]-dipropyl-amine], below 1000 nM.
As for `CCCN(CCOC)Cc1c(C(F)(F)F)nc2n1CCCN2c1c(C)cc(C)cc1Cl` [Example 110, [8-(2-Chloro-4,6-dimethyl-phenyl)-2-trifluoromethyl-5,6,7,8-tetrahydro-imidazo[1,2-a]pyrimidin-3-ylmethyl]-(2-methoxy-ethyl)-propyl-amine], the Ki was below 1000 nM.
The same measure for `CCCN(Cc1c(C(F)(F)F)nc2n1CCCN2c1c(C)cc(C)cc1Cl)CC1CCC1` [Example 111, [8-(2-Chloro-4,6-dimethyl-phenyl)-2-trifluoromethyl-5,6,7,8-tetrahydro-imidazo[1,2-a]pyrimidin-3-ylmethyl]-cyclobutylmethyl-propyl-amine]: below 1000 nM; for `Cc1cc(C)c(N2CCCn3c2nc(C(F)(F)F)c3CN(CC2CCC2)CC(F)(F)F)c(Cl)c1` [Example 112, [8-(2-Chloro-4,6-dimethyl-phenyl)-2-trifluoromethyl-5,6,7,8-tetrahydro-imidazo[1,2-a]pyrimidin-3-ylmethyl]-cyclobutylmethyl-(2,2,2-trifluoro-ethyl)-amine]: below 100 nM.
The same measure for `CCN(Cc1c(C(F)(F)F)nc2n1CCCN2c1c(C)cc(C)cc1Cl)CC1CC1` [Example 113, [8-(2-Chloro-4,6-dimethyl-phenyl)-2-trifluoromethyl-5,6,7,8-tetrahydro-imidazo[1,2-a]pyrimidin-3-ylmethyl]-cyclopropylmethyl-ethyl-amine]: below 100 nM; for `CCCN(Cc1c(C(F)(F)F)nc2n1CCCN2c1c(C)cc(C)cc1Cl)CC(F)(F)F` [Example 114, [8-(2-Chloro-4,6-dimethyl-phenyl)-2-trifluoromethyl-5,6,7,8-tetrahydro-imidazo[1,2-a]pyrimidin-3-ylmethyl]-propyl-(2,2,2-trifluoro-ethyl)-amine]: below 1000 nM; for `Cc1cc(C)c(N2CCCn3c2nc(C(F)(F)F)c3CN(CC2CC2)CC(F)(F)C(F)(F)F)c(Cl)c1` [Example 115, [8-(2-Chloro-4,6-dimethyl-phenyl)-2-trifluoromethyl-5,6,7,8-tetrahydro-imidazo[1,2-a]pyrimidin-3-ylmethyl]-cyclopropylmethyl-(2,2,3,3,3-pentafluoro-propyl)-amine]: below 100 nM.
Take `CCCN(CCC(F)(F)F)Cc1c(C(F)(F)F)nc2n1CCCN2c1c(C)cc(C)cc1Cl` [Example 116, [8-(2-Chloro-4,6-dimethyl-phenyl)-2-trifluoromethyl-5,6,7,8-tetrahydro-imidazo[1,2-a]pyrimidin-3-ylmethyl]-propyl-(3,3,3-trifluoro-propyl)-amine]: the inhibitory constant (Ki) was below 1000 nM.
The same measure for `CCCN(Cc1c(C(F)(F)F)nc2n1CCCN2c1c(C)cc(C)cc1Cl)CC(F)(F)C(F)(F)F` [Example 117, [8-(2-Chloro-4,6-dimethyl-phenyl)-2-trifluoromethyl-5,6,7,8-tetrahydro-imidazo[1,2-a]pyrimidin-3-ylmethyl]-(2,2,3,3,3-pentafluoro-propyl)-propyl-amine]: below 1000 nM.
With `Cc1cc(C)c(N2CCCn3c2nc(C(F)(F)F)c3CN(CCc2ccccc2)CCC(F)(F)F)c(Cl)c1` [Example 118, [8-(2-Chloro-4,6-dimethyl-phenyl)-2-trifluoromethyl-5,6,7,8-tetrahydro-imidazo[1,2-a]pyrimidin-3-ylmethyl]-phenethyl-(3,3,3-trifluoro-propyl)-amine], the inhibition constant (Ki) was below 1000 nM.
Turning to `Cc1cc(C)c(N2CCCn3c2nc(C(F)(F)F)c3CN(CCc2ccccc2)CC(F)(F)F)c(Cl)c1` [Example 119, [8-(2-Chloro-4,6-dimethyl-phenyl)-2-trifluoromethyl-5,6,7,8-tetrahydro-imidazo[1,2-a]pyrimidin-3-ylmethyl]-phenethyl-(2,2,2-trifluoro-ethyl)-amine], the Ki was below 1000 nM.
The same measure for `CCN(CCc1ccccc1)Cc1c(C(F)(F)F)nc2n1CCCN2c1c(C)cc(C)cc1Cl` [Example 120, [8-(2-Chloro-4,6-dimethyl-phenyl)-2-trifluoromethyl-5,6,7,8-tetrahydro-imidazo[1,2-a]pyrimidin-3-ylmethyl]-ethyl-phenethyl-amine]: below 1000 nM.
The same measure for `CCCN(CCc1ccccc1)Cc1c(C(F)(F)F)nc2n1CCCN2c1c(C)cc(C)cc1Cl` [Example 121, [8-(2-Chloro-4,6-dimethyl-phenyl)-2-trifluoromethyl-5,6,7,8-tetrahydro-imidazo[1,2-a]pyrimidin-3-ylmethyl]-phenethyl-propyl-amine]: below 1000 nM; for `Cc1cc(C)c(N2CCCn3c2nc(C(F)(F)F)c3CN(CCC2CC2)CCC(F)(F)F)c(Cl)c1` [Example 122, [8-(2-Chloro-4,6-dimethyl-phenyl)-2-trifluoromethyl-5,6,7,8-tetrahydro-imidazo[1,2-a]pyrimidin-3-ylmethyl]-(2-cyclopropyl-ethyl)-(3,3,3-trifluoro-propyl)-amine]: below 1000 nM; for `CCN(CCC1CC1)Cc1c(C(F)(F)F)nc2n1CCCN2c1c(C)cc(C)cc1Cl` [Example 123, [8-(2-Chloro-4,6-dimethyl-phenyl)-2-trifluoromethyl-5,6,7,8-tetrahydro-imidazo[1,2-a]pyrimidin-3-ylmethyl]-(2-cyclopropyl-ethyl)-ethyl-amine]: below 1000 nM.
The same measure for `CCCN(CCC1CC1)Cc1c(C(F)(F)F)nc2n1CCCN2c1c(C)cc(C)cc1Cl` [Example 124, [8-(2-Chloro-4,6-dimethyl-phenyl)-2-trifluoromethyl-5,6,7,8-tetrahydro-imidazo[1,2-a]pyrimidin-3-ylmethyl]-(2-cyclopropyl-ethyl)-propyl-amine]: below 1000 nM.
